Test results taken from patent EP0900211B1 (PHARMACIA & UPJOHN COMPANY, priority 1996, dated 1997).

Molecular target: Stromelysin (Homo sapiens, UniProt P08254)
Assay: MMP inhibition, particle concentration fluorescence assay
Type: biochemical
Conditions: in vitro; fluorescein/biotin substrate; MMP buffer pH 7.5; room temperature
Method: Inhibitory activity is evaluated in one or more of the MMP enzymes (stromelysin, gelatinase, and collagenase) in vitro using particle concentration fluorescence assay. An inhibitor binds to MMP enzymes which prevents the degradation of a substrate by stromelysin, gelatinase, or collagenase. The substrate has attached to it a fluorescein and a biotin moiety. The intact substrate then binds to an avidin-coated particle via the biotin moiety. Once the particle is washed and dried, a fluorescent signal is generated since the fluorescent group is attached to the particle. Without an inhibitor present, the substrate is degraded by MMP enzymes and the fluorescein group is removed, therefore, no fluorescent signal can be detected. Testing compounds are dissolved in DMSO to the desired concentration, then the solutions are diluted to 1:5 with MMP buffer (50 mM Tris-HCl, pH 7.5; 150 mM NaCl; 0.02% NaN3). Serial two-fold dilutions of each compound are prepared. A concentrated, activated enzyme solution is transferred into each plate of the testing compounds, and the mixture is incubated at room temperature for 15 minutes. […] At this point, the substrate mixture is mixed with 0.1% avidin-coated polystyrene particles. After 15 minutes, the fluorescence values are measured following filtration and washing of the beads. Ki values are then calculated.

Stromelysin, sequence (P08254 100-477): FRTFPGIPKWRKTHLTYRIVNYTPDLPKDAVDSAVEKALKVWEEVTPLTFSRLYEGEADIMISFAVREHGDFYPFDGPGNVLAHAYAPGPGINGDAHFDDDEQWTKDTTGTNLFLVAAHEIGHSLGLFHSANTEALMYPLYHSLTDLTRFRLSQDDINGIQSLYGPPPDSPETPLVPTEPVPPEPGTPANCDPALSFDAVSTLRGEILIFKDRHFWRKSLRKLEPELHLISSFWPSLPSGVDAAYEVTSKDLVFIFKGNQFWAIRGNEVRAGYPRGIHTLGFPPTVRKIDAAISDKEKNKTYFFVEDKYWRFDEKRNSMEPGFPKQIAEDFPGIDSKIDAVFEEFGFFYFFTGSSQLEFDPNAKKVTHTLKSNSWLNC

In order of rising Ki:
1. O=C(Nc1n[nH]c(=S)s1)N[C@@H](Cc1ccc([N+](=O)[O-])cc1)C(=O)NCCc1ccccc1 [Example 34, α-[[[(4,5-Dihydro-5-thioxo-1,3,4-thiadiazol-2-yl)amino]carbonyl]amino]-4-nitro-N-(2-phenylethyl)-(S)-benzenepropanamide]  210 nM
2. O=C(Nc1n[nH]c(=S)s1)N[C@@H](Cc1ccccc1)C(=O)NCCc1ccccc1 [Example 6, α-[[[(4,5-Dihydro-5-thioxo-1,3,4-thiadiazol-2-yl)amino]carbonyl]-amino]-N-(2-phenylethyl)-(S)-benzenepropanamide]  300 nM
3. CCCCNC(=O)[C@H](Cc1ccc([N+](=O)[O-])cc1)NC(=O)Nc1n[nH]c(=S)s1 [Example 35, N-Butyl-α-[[[(4,5-dihydro-5-thioxo-1,3,4-thiadiazol-2-yl)amino]carbonyl]amino]-4-nitro-(S)-benzenepropanamide]  350 nM
4. CNC(=O)C(Cc1ccc(Br)cc1)NC(=O)Nc1n[nH]c(=S)s1 (stereo not drawn) [Example 20, α-[[[(4,5-Dihydro-5-thioxo-1,3,4-thiadiazol-2-yl)amino]carbonyl]-amino]-N-methyl-4-bromobenzene-propanamide]  800 nM
5. O=C(Nc1n[nH]c(=S)s1)N[C@@H](Cc1ccccc1)C(=O)NCc1ccccn1 [Example 7, α-[[[(4,5-Dihydro-5-thioxo-1,3,4-thiadiazol-2-yl)amino]carbonyl]-amino]-N-(2-pyridinylmethyl)-(S)-benzenepropanamide]  1100 nM
6. O=C(Nc1n[nH]c(=S)s1)N[C@@H](Cc1ccccc1)C(=O)NCc1ccncc1 [Example 17, α-[[[(4,5-Dihydro-5-thioxo-1,3,4-thiadiazol-2-yl)amino]-carbonyl]amino]-N-(4-pyridinylmethyl)-(S)-benzenepropanamide]  1270 nM
7. COC(=O)[C@H](Cc1ccc([N+](=O)[O-])cc1)NC(=O)Nc1n[nH]c(=S)s1 [Example 32, N-[[(4,5-Dihydro-5-thioxo-1,3,4-thiadiazol-2-yl)amino]carbonyl]-L-(4-nitrophenyl)alanine methyl ester]  1870 nM
8. O=C(Nc1n[nH]c(=S)s1)N[C@@H](Cc1ccccc1)C(=O)NCCN1CCOCC1 [Example 19, α-[[[(4,5-Dihydro-5-thioxo-1,3,4-thiadiazol-2-yl)amino]carbonyl]-amino]-N-[2-(4-morpholinyl)ethyl]-(S)-benzenepropanamide]  1990 nM
9. O=C(Nc1n[nH]c(=S)s1)N[C@@H](Cc1ccccc1)C(=O)NCc1cccnc1 [Example 18, α-[[[(4,5-Dihydro-5-thioxo-1,3,4-thiadiazol-2-yl)amino]carbonyl]-amino]-N-(3-pyridinylmethyl)-(S)-benzenepropanamide]  2010 nM
10. CNC(=O)[C@H](Cc1c[nH]c2ccccc12)NC(=O)Nc1n[nH]c(=S)s1 [Example 13, α-[[[(4,5-Dihydro-5-thioxo-1,3,4-thiadiazol-2-yl)amino]carbonyl]-amino]-N-methyl-(S)-1H-indole-3-propanamide]  2500 nM
11. COC(=O)[C@H](Cc1ccc(OC)cc1)NC(=O)Nc1n[nH]c(=S)s1 [Example 30, N-[[(4,5-Dihydro-5-thioxo-1,3,4-thiadiazol-2-yl)amino]carbonyl]-O-methyl-L-tyrosine methyl ester]  2750 nM
12. CC(C)C[C@H](NC(=O)Nc1n[nH]c(=S)s1)C(=O)NCCc1ccccc1 [Example 28, 2-[[[(4,5-Dihydro-5-thioxo-1,3,4-thiadiazol-2-yl)amino]-carbonyl]amino]-4-methyl-N-(2-phenylethyl)-(S)-pentanamide]  3490 nM
13. CC(C)C[C@H](NC(=O)Nc1n[nH]c(=S)s1)C(=O)NCc1ccccc1 [Example 29, 2-[[[(4,5-Dihydro-5-thioxo-1,3,4-thiadiazol-2-yl)amino]carbonyl]amino]-4-methyl-N-(phenylmethyl)-(S)-pentanamide]  4420 nM
14. COC(=O)[C@@H](NC(=O)Nc1n[nH]c(=S)s1)c1ccccc1 [Example 24, (S)-N-[[(4,5-Dihydro-5-thioxo-1,3,4-thiadiazol-2-yl)amino]carbonyl]-2-phenylglycine methyl ester]  7660 nM
